Test results reported in ChEMBL document CHEMBL4308864, “Targeting tyrosine kinase: Development of acridone - pyrrole - oxindole hybrids against human breast cancer” (2019).

How the values were obtained:
Assay type in all cases: functional
DU-145 = test: Growth inhibition of human DU145 cells assessed as cell growth at 10^-5 M incubated for 48 hrs by sulforhodamine B assay relative to control; settings: DU-145, 48 h, read-out: Activity
RPMI-8226 = test: Growth inhibition of human RPMI8226 cells assessed as cell growth at 10^-5 M incubated for 48 hrs by sulforhodamine B assay relative to control; settings: RPMI-8226, 48 h, read-out: Activity
IGROV-1 = test: Growth inhibition of human IGROV1 cells assessed as cell growth at 10^-5 M incubated for 48 hrs by sulforhodamine B assay relative to control; settings: IGROV-1, 48 h, read-out: Activity
OVCAR-4 = test: Growth inhibition of human OVCAR4 cells assessed as cell growth at 10^-5 M incubated for 48 hrs by sulforhodamine B assay relative to control; settings: OVCAR-4, 48 h, read-out: Activity
SN12C = test: Growth inhibition of human SN12C cells assessed as cell growth at 10^-5 M incubated for 48 hrs by sulforhodamine B assay relative to control; settings: read-out: Activity
M14 = test: Growth inhibition of human M14 cells assessed as cell growth at 10^-5 M incubated for 48 hrs by sulforhodamine B assay relative to control; settings: M14, 48 h, read-out: Activity
SNB-75 = test: Growth inhibition of human SNB75 cells assessed as cell growth at 10^-5 M incubated for 48 hrs by sulforhodamine B assay relative to control; settings: SNB-75, 48 h, read-out: Activity
TK-10 = test: Growth inhibition of human TK10 cells assessed as cell growth at 10^-5 M incubated for 48 hrs by sulforhodamine B assay relative to control; settings: TK-10, 48 h, read-out: Activity
BT-549 = test: Growth inhibition of human BT549 cells assessed as cell growth at 10^-5 M incubated for 48 hrs by sulforhodamine B assay relative to control; settings: BT-549, 48 h, read-out: Activity
NCI-H322M = test: Growth inhibition of human NCI-H322M cells assessed as cell growth at 10^-5 M incubated for 48 hrs by sulforhodamine B assay relative to control; settings: read-out: Activity
SK-OV-3 = test: Growth inhibition of human SKOV3 cells assessed as cell growth at 10^-5 M incubated for 48 hrs by sulforhodamine B assay relative to control; settings: SK-OV-3, 48 h, read-out: Activity
UACC-257 = test: Growth inhibition of human UACC257 cells assessed as cell growth at 10^-5 M incubated for 48 hrs by sulforhodamine B assay relative to control; settings: UACC-257, 48 h, read-out: Activity
MDA-MB-231 = test: Growth inhibition of human MDA-MB-231 cells assessed as cell growth at 10^-5 M incubated for 48 hrs by sulforhodamine B assay relative to control; settings: MDA-MB-231, 48 h, read-out: Activity
CAKI-1 = test: Growth inhibition of human Caki1 cells assessed as cell growth at 10^-5 M incubated for 48 hrs by sulforhodamine B assay relative to control; settings: CAKI-1, 48 h, read-out: Activity
UO-31 = test: Growth inhibition of human UO31 cells assessed as cell growth at 10^-5 M incubated for 48 hrs by sulforhodamine B assay relative to control; settings: UO-31, 48 h, read-out: Activity
NCI-H460 = test: Growth inhibition of human NCI-H460 cells assessed as cell growth at 10^-5 M incubated for 48 hrs by sulforhodamine B assay relative to control; settings: NCI-H460, 48 h, read-out: Activity
HOP-92 = test: Growth inhibition of human HOP92 cells assessed as cell growth at 10^-5 M incubated for 48 hrs by sulforhodamine B assay relative to control; settings: HOP-92, 48 h, read-out: Activity
HCC 2998 = test: Growth inhibition of human HCC2998 cells assessed as cell growth at 10^-5 M incubated for 48 hrs by sulforhodamine B assay relative to control; settings: HCC 2998, 48 h, read-out: Activity
A498 = test: Growth inhibition of human A498 cells assessed as cell growth at 10^-5 M incubated for 48 hrs by sulforhodamine B assay relative to control; settings: A498, 48 h, read-out: Activity
CCRF-CEM = test: Growth inhibition of human CCRF-CEM cells assessed as cell growth at 10^-5 M incubated for 48 hrs by sulforhodamine B assay relative to control; settings: read-out: Activity
OVCAR-3 = test: Growth inhibition of human OVCAR3 cells assessed as cell growth at 10^-5 M incubated for 48 hrs by sulforhodamine B assay relative to control; settings: OVCAR-3, 48 h, read-out: Activity
SF-268 = test: Growth inhibition of human SF268 cells assessed as cell growth at 10^-5 M incubated for 48 hrs by sulforhodamine B assay relative to control; settings: SF-268, 48 h, read-out: Activity
SF-295 = test: Growth inhibition of human SF295 cells assessed as cell growth at 10^-5 M incubated for 48 hrs by sulforhodamine B assay relative to control; settings: SF-295, 48 h, read-out: Activity
U-251 = test: Growth inhibition of human U251 cells assessed as cell growth at 10^-5 M incubated for 48 hrs by sulforhodamine B assay relative to control; settings: U-251, 48 h, read-out: Activity
K562 = test: Growth inhibition of human K562 cells assessed as cell growth at 10^-5 M incubated for 48 hrs by sulforhodamine B assay relative to control; settings: K562, 48 h, read-out: Activity
KM12 = test: Growth inhibition of human KM12 cells assessed as cell growth at 10^-5 M incubated for 48 hrs by sulforhodamine B assay relative to control; settings: KM12, 48 h, read-out: Activity
SF-539 = test: Growth inhibition of human SF539 cells assessed as cell growth at 10^-5 M incubated for 48 hrs by sulforhodamine B assay relative to control; settings: SF-539, 48 h, read-out: Activity
LOX IMVI = test: Growth inhibition of human LOXIMVI cells assessed as cell growth at 10^-5 M incubated for 48 hrs by sulforhodamine B assay relative to control; settings: read-out: Activity
NCI/ADR-RES = test: Growth inhibition of human NCI/ADR-RES cells assessed as cell growth at 10^-5 M incubated for 48 hrs by sulforhodamine B assay relative to control; settings: read-out: Activity
COLO 205 = test: Growth inhibition of human COLO205 cells assessed as cell growth at 10^-5 M incubated for 48 hrs by sulforhodamine B assay relative to control; settings: COLO 205, 48 h, read-out: Activity
T47D = test: Growth inhibition of human T47D cells at 10^-5 M incubated for 48 hrs by sulforhodamine B assay relative to control; settings: read-out: GI
OVCAR-8 = test: Growth inhibition of human OVCAR8 cells assessed as cell growth at 10^-5 M incubated for 48 hrs by sulforhodamine B assay relative to control; settings: OVCAR-8, 48 h, read-out: Activity

Compound: O=C1NC(=O)C(=Cc2cccn2CCCCCn2c3ccccc3c(=O)c3ccccc32)C(=O)N1
- growth at 10 µM (DU-145): 113%
- growth at 10 µM (RPMI-8226): 92%
- growth at 10 µM (IGROV-1): 99.4%
- growth at 10 µM (OVCAR-4): 99.8%
- growth at 10 µM (SN12C): 106%
- growth at 10 µM (M14): 102%
- growth at 10 µM (SNB-75): 101%
- growth at 10 µM (TK-10): 101%
- growth at 10 µM (BT-549): 104%
- growth at 10 µM (NCI-H322M): 98.3%
- growth at 10 µM (SK-OV-3): 108%
- growth at 10 µM (UACC-257): 104%
- growth at 10 µM (MDA-MB-231): 116%
- growth at 10 µM (CAKI-1): 103%
- growth at 10 µM (UO-31): 79.4%
- growth at 10 µM (NCI-H460): 108%
- growth at 10 µM (HOP-92): 90.4%
- growth at 10 µM (HCC 2998): 105%
- growth at 10 µM (A498): 104%
- growth at 10 µM (CCRF-CEM): 100%
- growth at 10 µM (OVCAR-3): 105%
- growth at 10 µM (SF-268): 102%
- growth at 10 µM (SF-295): 99.4%
- growth at 10 µM (U-251): 96.8%
- growth at 10 µM (K562): 89.1%
- growth at 10 µM (KM12): 103%
- growth at 10 µM (SF-539): 102%
- growth at 10 µM (LOX IMVI): 95.3%
- growth at 10 µM (NCI/ADR-RES): 99.5%
- growth at 10 µM (COLO 205): 114%
- inhibition of growth at 10 µM (T47D): 13%
- growth at 10 µM (OVCAR-8): 102%
